Columns and labels:
Assay in all cases: Ligand binding assay
RARα = molecular target: T1, RARα (Homo sapiens, UniProt P10276)
T1 sequence (P10276 1-462): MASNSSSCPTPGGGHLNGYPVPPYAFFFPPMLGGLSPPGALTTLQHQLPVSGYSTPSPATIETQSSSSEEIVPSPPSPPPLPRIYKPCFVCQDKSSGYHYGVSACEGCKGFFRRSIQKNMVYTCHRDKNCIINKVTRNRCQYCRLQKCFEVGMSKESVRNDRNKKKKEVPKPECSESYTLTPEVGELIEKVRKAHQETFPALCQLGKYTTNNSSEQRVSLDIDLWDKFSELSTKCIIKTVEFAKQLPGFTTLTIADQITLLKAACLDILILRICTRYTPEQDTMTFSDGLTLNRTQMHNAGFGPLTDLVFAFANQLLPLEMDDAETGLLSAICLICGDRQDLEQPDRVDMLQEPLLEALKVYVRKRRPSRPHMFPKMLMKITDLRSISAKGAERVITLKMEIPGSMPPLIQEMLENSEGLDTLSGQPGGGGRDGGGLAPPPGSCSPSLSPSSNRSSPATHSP
Source text: (§1) Other assays described below, measure the ability of the compounds of the present invention to bind to, and/or activate various retinoid receptor subtypes. When in these assays a compound binds to a given receptor subtype and activates the transcription of a reporter gene through that subtype, then the compound is considered an agonist of that receptor subtype. […] In the below described assays the ability of the compounds to bind to RARα, RARβ, RARγ, RXRα, RXRβ and RXR.tau. receptors, and the ability or inability of the compounds to activate transcription of a reporter gene through these receptor subtypes can be tested.
(§2) A holoreceptor transactivation assay and a ligand binding assay which measure the antagonist/agonist like activity of the compounds of the invention, or their ability to bind to the several retinoid receptor subtypes, respectively, are described in published PCT Application No. WO WO93/11755 (particularly on pages 30-33 and 37-41) published on Jun. 24, 1993, the specification of which is also incorporated herein by reference. A detailed experimental procedure for holoreceptor transactivations has been described by Heyman et aL Cell 68, 397-406, (1992); Allegretto et aL J. Biol. Chem. 268, 26625-26633, and Mangelsdorf et aL The Retinoids: Biology, Chemistry and Medicine, pp 319-349, Raven Press Ltd., New York, which are expressly incorporated herein by reference. The results obtained in this assay are expressed in EC50 numbers, as they are also in the chimeric receptor transactivation assay. The results of ligand binding assay are expressed in Kd numbers. (See Cheng et aL Biochemical Pharmacology Vol. 22 pp 3099-3108, expressly incorporated herein by reference.)

RARγ = molecular target: T2, RARγ (Homo sapiens, UniProt P13631)
T2 sequence (P13631 1-454): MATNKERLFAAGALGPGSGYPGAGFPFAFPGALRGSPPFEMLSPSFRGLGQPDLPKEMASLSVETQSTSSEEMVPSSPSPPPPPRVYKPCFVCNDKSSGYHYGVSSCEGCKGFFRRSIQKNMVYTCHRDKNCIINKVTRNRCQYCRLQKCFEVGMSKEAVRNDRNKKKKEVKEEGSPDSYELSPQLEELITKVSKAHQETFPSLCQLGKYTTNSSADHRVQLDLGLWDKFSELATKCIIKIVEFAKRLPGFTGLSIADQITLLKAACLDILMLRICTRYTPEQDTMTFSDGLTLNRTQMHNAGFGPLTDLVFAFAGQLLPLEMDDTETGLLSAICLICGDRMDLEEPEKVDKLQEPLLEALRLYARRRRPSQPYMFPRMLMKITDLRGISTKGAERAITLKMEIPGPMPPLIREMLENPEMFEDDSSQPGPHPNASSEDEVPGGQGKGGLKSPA
Source text: as §1, §2

RARβ = molecular target: T3, RARβ (Homo sapiens, UniProt P10826); details: read-out: Kd RABβ
T3 sequence (P10826 1-448 isoform P10826-2): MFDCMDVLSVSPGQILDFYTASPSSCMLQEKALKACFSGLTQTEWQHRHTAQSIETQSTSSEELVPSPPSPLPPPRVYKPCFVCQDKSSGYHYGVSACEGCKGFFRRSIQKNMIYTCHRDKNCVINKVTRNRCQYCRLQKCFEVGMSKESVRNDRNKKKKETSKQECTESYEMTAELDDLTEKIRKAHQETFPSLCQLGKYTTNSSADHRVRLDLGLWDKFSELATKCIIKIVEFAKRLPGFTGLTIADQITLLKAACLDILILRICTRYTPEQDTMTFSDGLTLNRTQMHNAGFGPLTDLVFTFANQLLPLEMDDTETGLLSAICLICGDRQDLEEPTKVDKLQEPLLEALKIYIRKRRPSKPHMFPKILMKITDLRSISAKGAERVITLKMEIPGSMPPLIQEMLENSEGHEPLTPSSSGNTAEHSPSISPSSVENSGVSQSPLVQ
Source text: as §1, §2

Row | Structure (SMILES) | Kd (RARα) [nM] | Kd (RARγ) [nM] | Kd (RARβ) [nM]
1 | COc1ccc(C#Cc2ccc(C(=O)O)cc2)cc1C(=O)c1ccc(C)cc1 [Compound 22, 4-[[4'-methoxy-3'-(4"-methyl)benzoyl]phenylethynyl]benzoic acid] | 1600 | 1500 | 763
2 | Cc1ccc(C(=O)c2cc(C#Cc3ccc(C(=O)O)c(F)c3)c(C)cc2O)cc1 [Compound 25, 4-[[4'-Hydroxy-2'-methyl-5'-(4"-methyl)benzoyl]phenylethynyl]-2-fluoro-benzoic acid] | 1150 | 1960 | 217
3 | C=C(c1ccc(C)cc1)c1cc(C#Cc2ccc(C(=O)O)cc2)ccc1OC [Compound 12, 4-[[4'-Methoxy-3'-(1-p-tolyl)vinyl]phenylethynyl]benzoic acid] | 1450 | 394 | 193
4 | COCOc1ccc(C#Cc2ccc(C(=O)O)cc2)cc1C(=O)c1ccc(C)cc1 [Compound 13] | 1190 | 902 | 487
5 | C=C(c1ccc(C)cc1)c1cc(C#Cc2ccc(C(=O)O)cc2)ccc1OC(C)C [Compound 28, 4-[[4'-Isopropoxy-3'-(1-p-tolyl)vinyl]phenylethynyl]benzoic acid] | 2090 | 949 | 538
6 | C=C(c1ccc(C)cc1)c1cc(C#Cc2ccc(C(=O)O)cc2)ccc1O [Compound 8, 4-[[4'-Hydroxy-3'-(1-p-tolyl)vinyl]phenylethynyl]benzoic acid] | 8200 | 5220 | 1320
7 | C=C(c1ccc(C)cc1)c1cc(C#Cc2ccc(C(=O)O)c(F)c2)ccc1OC(C)C [Compound 29, 4-[[4'-Isopropoxy-3'-(1-p-tolyl)vinyl]phenylethynyl]-2-fluoro-benzoic acid] | 1160 | 817 | 233
8 | C=C(c1cccc(C)c1)c1cc(C#Cc2ccc(C(=O)O)cc2)ccc1OC(C)C [Compound 31, 4-[[4'-Isopropoxy-3'-(1-m-tolyl)vinyl]phenylethynyl]benzoic acid] | 3290 | 366 | 488
9 | Cc1ccc(C(=O)c2cc(C#Cc3ccc(C(=O)O)cc3)ccc2O)cc1 [Compound 5, 4-[[4'-hydroxy-3'-(4"-methyl)benzoyl]phenylethynyl]benzoic acid] | 339 | 897 | 98
10 | C=C(c1ccc(C)cc1)c1cccc(C#Cc2ccc(C(=O)O)cc2)c1 [Compound 20, 4-[[3'-(1-p-Tolyl)vinyl]phenylethynyl]benzoic acid] | > 1000 | > 1000 | 224
11 | C=C(c1ccc(C)cc1)c1cc(C#Cc2ccc(C(=O)O)cc2)ccc1OCOC [Compound 9, 4-[[4'-methoxymethoxy-3'-(1-p-tolyl)vinyl]phenylethynyl]benzoic acid] | 942 | 730 | 152

Reference: patent US6225494A, “Trisubstituted phenyl derivatives having retinoid agonist or inverse agonist type biological activity” (Allergan Sales, Inc., priority 1999, dated 2001)
